Structures can show the parent of a compound that is named as a salt. Where two headings read alike, the source gives them in different places.
Experiments:
MDBK line = experiment: MTT Cell Proliferation Assay, MDBK cells; type: cell-based, bovine
Summary of the method: (§1)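 Viability was measured by mitochondrial MTT reduction after cells were exposed to compound for 3 days in reduced-serum medium. Inhibition was calculated per plate against 0.5% DMSO controls.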

[1] = test system: epithelial carcinoma A431 cell line; experiment: MTT Cell Proliferation Assay, A431 cells; type: cell-based; conditions: for MTT Assay IC50(A431/MDBK): ratio in parentheses: ratio MDBK IC50 / A431 IC50 (selectivity)
Summary of the method: as §1

EGFR = target: T1, EGFR (Homo sapiens, UniProt P00533); experiment: EGFR in-cell Western (ICW) screening protocol (EGFR inhibition assay); type: cell-based; design: ICW 1 / ICW 2 / ICW Avg: unit not given here; conditions: for ICW assay: Table 10; for ICW assay / ICW Screen: % Inhibition of EGF dependent EGFR phosphorylation in A431 cells, compound 125 μM in assay; for ICW Screen: Table 11; for ICW Avg / ICW 1 / ICW 2: ICW assay; for ICW Avg: average of runs 1 and 2; for ICW 1: run 1; for ICW 2: run 2
T1 construct: host or cells: A431
Summary of the method: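 Serum-starved A431 cells (2 h) were pretreated with compound for 4 h at 37° C, then stimulated with EGF (10 ng/ml final, or 6.6 or 12.5 ng/ml in some runs) for 10 min. After formaldehyde fixation, phospho-EGFR (Tyr1173, or Tyr1045 in some runs) and total EGFR were detected by in-cell Western immunostaining.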

[2] = Bos taurus, MDBK, 72 h, Table 10, second of x/y(ratio): MDBK, three day treatment, unit not printed (doses in μM), read-out: MTT assay (second value)
[3] = Homo sapiens, A-431, 72 h, Table 10, first of x/y(ratio): A431, three day treatment, unit not printed (doses in μM), read-out: MTT assay (first value)
[4] = Bos taurus, MDBK, MDBK cells, second value of cell, read-out: MTT Assay IC50(A431/MDBK): MDBK
[5] = Homo sapiens, A-431, A431 cells, first value of cell, read-out: MTT Assay IC50(A431/MDBK): A431
[6] = Bos taurus, MDBK, second value of 'a/b (c)', taken as MDBK cells, read-out: MTT Screen, second value of cell
[7] = Homo sapiens, A-431, first value of 'a/b (c)', taken as A431 cells, read-out: MTT Screen, first value of cell

T1 sequence (P00533 25-1210): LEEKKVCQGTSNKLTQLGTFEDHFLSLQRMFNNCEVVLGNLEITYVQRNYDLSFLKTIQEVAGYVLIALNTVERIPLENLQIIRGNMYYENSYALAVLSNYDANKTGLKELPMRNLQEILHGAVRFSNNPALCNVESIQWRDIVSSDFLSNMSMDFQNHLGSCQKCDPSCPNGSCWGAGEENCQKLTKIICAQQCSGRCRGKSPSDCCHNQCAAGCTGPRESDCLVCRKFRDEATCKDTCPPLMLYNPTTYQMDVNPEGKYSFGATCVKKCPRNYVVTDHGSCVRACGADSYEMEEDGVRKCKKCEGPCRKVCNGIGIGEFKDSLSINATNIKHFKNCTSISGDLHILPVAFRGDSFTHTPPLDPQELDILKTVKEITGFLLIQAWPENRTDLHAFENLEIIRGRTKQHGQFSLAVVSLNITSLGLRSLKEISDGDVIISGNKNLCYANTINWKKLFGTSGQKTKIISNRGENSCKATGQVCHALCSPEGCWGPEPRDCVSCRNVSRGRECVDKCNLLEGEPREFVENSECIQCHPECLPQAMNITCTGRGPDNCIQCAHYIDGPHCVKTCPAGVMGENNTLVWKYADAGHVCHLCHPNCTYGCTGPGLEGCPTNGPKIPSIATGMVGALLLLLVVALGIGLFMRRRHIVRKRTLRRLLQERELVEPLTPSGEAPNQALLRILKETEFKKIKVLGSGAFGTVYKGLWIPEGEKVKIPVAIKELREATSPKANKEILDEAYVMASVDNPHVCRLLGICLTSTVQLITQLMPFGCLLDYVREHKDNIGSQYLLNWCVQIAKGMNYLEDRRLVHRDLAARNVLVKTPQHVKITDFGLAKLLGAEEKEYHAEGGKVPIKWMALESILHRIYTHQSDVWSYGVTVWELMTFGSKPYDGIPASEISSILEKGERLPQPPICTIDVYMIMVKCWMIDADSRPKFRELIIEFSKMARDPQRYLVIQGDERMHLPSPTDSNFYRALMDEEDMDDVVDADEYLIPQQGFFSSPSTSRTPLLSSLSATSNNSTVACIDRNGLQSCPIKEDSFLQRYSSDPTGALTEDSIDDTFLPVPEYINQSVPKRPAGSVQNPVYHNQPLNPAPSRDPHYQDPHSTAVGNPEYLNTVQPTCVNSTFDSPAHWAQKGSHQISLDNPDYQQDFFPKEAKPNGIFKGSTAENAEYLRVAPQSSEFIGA

| IC50 [1, 3] [µM] | ICW assay (EGFR) | MTT Assay IC50(A431/MDBK): ratio in parentheses [1] | ICW Avg (EGFR) | ICW 1 (EGFR) | ICW 2 (EGFR) | Compound | IC50 (MDBK line; [2]) [µM] | other results |
| --- | --- | --- | --- | --- | --- | --- | --- | --- |
| 6.33 | 42.5115 |  |  |  |  | Cc1ccc(NC(=S)Nc2ccc(S(=O)(=O)Nc3cc(Cl)cc(Cl)c3)cc2)cc1 [AD4-12460] | 5.61 |  |
| 6.23 | 64.2647 |  |  |  |  | Cc1cccc(NC(=S)Nc2ccc(S(=O)(=O)Nc3cc(Cl)cc(Cl)c3)cc2)c1 [AD4-12472] | 5.42 |  |
| 4.08 | 82.3761 |  |  |  |  | CC(C)c1ccc(NC(=S)Nc2ccc(S(=O)(=O)Nc3cc(Cl)cc(Cl)c3)cc2)cc1 [AD4-12424] | 4.73 |  |
|  |  |  |  |  |  | CCc1cc2c(CN3CCN(Cc4ccccc4)CC3)cc(=O)oc2cc1O [AD4-10631] |  | IC50 (MDBK line; Table 11, second of x/y(ratio): MDBK, unit not printed (doses in μM), read-out: MTT Screen (second value)): 37.5 µM; IC50 ([1]; Table 11, first of x/y(ratio): A431, unit not printed (doses in μM), read-out: MTT Screen (first value)): 35.6 µM; ICW Screen (EGFR): 104.48 |
|  |  | 0.75 | 29.86 | 30.46 | 29.26 | Cc1cc2nc(Nc3ncc4c(n3)CC(c3cccs3)CC4=O)nc(C)c2cc1C (centres unmarked) [11681 + TFA] |  | IC50 (MDBK line; [4]): 4.08 µM; IC50 [1, 5]: 5.47 µM |
| 6.98 | 33.3993 |  |  |  |  | COc1ccc(C)cc1NC(=S)Nc1ccc(S(=O)(=O)Nc2ccc(Cl)cc2)cc1 [AD4-12485] | 7.19 |  |
| 6.65 | 44.2167 |  |  |  |  | Cc1ccccc1NS(=O)(=O)c1ccc(NC(=S)Nc2ccc(F)c(Cl)c2)cc1 [AD4-12477] | 5.44 |  |
|  |  | 1.18 | 36.77 | 48.16 | 25.37 | Cc1ccc2nc(Nc3nc(C)c(CCC(C)C)c(=O)[nH]3)nc(C)c2c1 [12666 + TFA] |  | IC50 (MDBK line; [4]): 17.1 µM; IC50 [1, 5]: 14.5 µM |
|  |  | 1.08 | 25.97 | 16.57 | 35.37 | Cc1nc(Nc2nc3c(c(-c4ccccc4)n2)CCCC3)nc2c(C)cccc12 [12229 + TFA] |  | IC50 (MDBK line; [4]): 20.9 µM; IC50 [1, 5]: 19.2 µM |
|  |  | 0.70 | 30.77 | 24.37 | 37.17 | Cc1nc(Nc2nc(C(C)C)cc(=O)[nH]2)nc2c(C)cccc12 [compound 12777] |  | IC50 (MDBK line; [4]): 8.96 µM; IC50 [1, 5]: 12.8 µM |
|  |  |  |  |  |  | C=CCN(CC=C)S(=O)(=O)c1ccc(NC(=S)NC(=O)/C=C/c2cccs2)cc1 [AD4-11979] |  | IC50 (MDBK line; [6]): 16.2 µM; IC50 [1, 7]: 9.31 µM; ICW Screen (ICW Inhibition) (EGFR): 39.775 |
|  |  |  |  |  |  | CN1CCN(S(=O)(=O)c2ccc(NC(=S)NC(=O)/C=C/c3ccccc3Cl)cc2)CC1 [AD4-12059] |  | IC50 (MDBK line; [6]): 37.7 µM; IC50 [1, 7]: 32.2 µM; ICW Screen (ICW Inhibition) (EGFR): 28.33 |
|  |  | 2.18 | 49.02 | 49.55 | 48.49 | Cc1cc(C)nc(Nc2nc(-c3ccccc3)c3ccc(Cl)cc3n2)n1 [compound 12636] |  | IC50 (MDBK line; MDBK cells, second value of cell, read-out: MTT Assay IC50(A431/MDBK): MDBK): 34.6 µM; IC50 ([1]; A431 cells, first value of cell, read-out: MTT Assay IC50(A431/MDBK): A431): 15.9 µM |
|  |  |  |  |  |  | CC(=O)NC(=S)Nc1ccc(S(=O)(=O)N2CCc3ccccc32)cc1 [AD4-10623] |  | IC50 (MDBK line; [6]): 38.3 µM; IC50 [1, 7]: 25.8 µM; ICW Screen (ICW Inhibition) (EGFR): 46.185 |
|  |  | 0.48 | 59.65 | 59.16 | 60.14 | Cc1nc(Nc2nc(=O)c3c([nH]2)CCCC3)nc2c(C)cccc12 [11436 + TFA] |  | IC50 (MDBK line; [4]): 2.8 µM; IC50 [1, 5]: 5.86 µM |
| 7 | 57.4272 |  |  |  |  | O=S(=O)(Nc1ccccc1)c1ccc(NC(=S)Nc2ccc(Cl)cc2)cc1 [AD4-12783] | 7.62 |  |
|  |  |  |  |  |  | Cc1cc(C)c2c(CN3CCN(Cc4ccc5c(c4)OCO5)CC3)cc(=O)oc2c1 [AD4-10182] |  | IC50 (MDBK line; Bos taurus, MDBK, Table 11, second of x/y(ratio): MDBK, unit not printed (doses in μM), read-out: MTT Screen (second value)): 43.3 µM; MTT Follow-up (second value) (MDBK line; Table 11, second of x/y(ratio): MDBK, unit not given): non- convergent; IC50 ([1]; Homo sapiens, A-431, 72 h, Table 11, first of x/y(ratio): A431, unit not printed (doses in μM), read-out: MTT Screen (first value)): 6.78 µM; IC50 ([1]; Homo sapiens, A-431, Table 11, first of x/y(ratio): A431, unit inferred, read-out: MTT Follow-up (first value)): 3.75 µM; ICW Screen (EGFR): 39.51 |

Source: US20140179681A1, “METHODS AND COMPOSITIONS OF TARGETED DRUG DEVELOPMENT” (priority 2010, published 2014)
